The supplement of paper PMC10307832

Key:
Test in all cases: relative viability (nuclei count vs DMSO), 5 days (fraction); higher = more cells survive
Cediranib + Luminespib = compound: COc1cc2c(Oc3ccc4[nH]c(C)cc4c3F)ncnc2cc1OCCCN1CCCC1 [Cediranib] + CCNC(=O)c1noc(-c2cc(C(C)C)c(O)cc2O)c1-c1ccc(CN2CCOCC2)cc1 [Luminespib] (partner 0.01 µM)
In short: (§1)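 For relative viability, nuclei counts in treated wells were divided by those in vehicle wells. Lung cancer cell lines had been pin-tool dosed in 1536-well plates the day after seeding and cultured for 5 days, then fixed and stained in one step (final 0.05% Triton X-100, 1% formaldehyde, 1 ug/ml Hoechst) and imaged at 4×. Doses were one drug alone or a fixed anchor-drug dose plus five library-drug doses (not always all listed) in √10 steps, and values are duplicate-plate medians.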

Cediranib + Olaparib = compound: COc1cc2c(Oc3ccc4[nH]c(C)cc4c3F)ncnc2cc1OCCCN1CCCC1 [Cediranib] + O=C(c1cc(Cc2n[nH]c(=O)c3ccccc23)ccc1F)N1CCN(C(=O)C2CC2)CC1 [Olaparib] (partner 8 µM)
In short: as §1

[1] = compound: O=C(C[C@H]1NCCC[C@@H]1O)Cn1cnc2cc(Br)c(Cl)cc2c1=O (racemic) [Halofuginone] + CC(=O)Nc1cccc(-n2c(=O)n(C3CC3)c(=O)c3c(Nc4ccc(I)cc4F)n(C)c(=O)c(C)c32)c1 [Trametinib] (partner 0.02 µM)
In short: as §1

Row | Cell Line | relative viability (Cediranib + Luminespib; first compound 0.04 µM) | relative viability (Cediranib + Luminespib; first compound 0.1265 µM) | relative viability (Cediranib + Luminespib; first compound 0.4 µM) | relative viability (Cediranib + Luminespib; first compound 1.265 µM) | relative viability (Cediranib + Luminespib; first compound 4 µM) | relative viability (Cediranib + Olaparib; first compound 0.04 µM) | relative viability (Cediranib + Olaparib; first compound 0.1265 µM) | relative viability (Cediranib + Olaparib; first compound 0.4 µM) | relative viability (Cediranib + Olaparib; first compound 1.265 µM) | relative viability (Cediranib + Olaparib; first compound 4 µM) | relative viability ([1]; first compound 0.001 µM) | relative viability ([1]; first compound 0.003162 µM) | relative viability ([1]; first compound 0.01 µM) | relative viability ([1]; first compound 0.03162 µM) | relative viability ([1]; first compound 0.1 µM)
1 | NCI-H1915 | 0.972 | 0.759 | 0.787 | 0.813 | 0.875 | 0.246 | 0.251 | 0.263 | 0.289 | 0.249 | 0.319 | 0.291 | 0.28 | 0.297 | 0.262
2 | NCI-H2009 | 1.09 | 0.97 | 0.995 | 1.12 | 1.05 | 0.637 | 0.698 | 0.676 | 0.694 | 0.669 | 0.345 | 0.343 | 0.295 | 0.234 | 0.11
3 | NCI-H1651 | 0.763 | 0.751 | 0.786 | 0.861 | 0.892 | 0.189 | 0.18 | 0.179 | 0.166 | 0.185 | 0.8 | 0.853 | 0.804 | 0.819 | 0.806
4 | HOP-62 | 1.01 | – | 0.79 | 0.949 | 0.94 | 0.385 | – | 0.425 | 0.503 | 0.688 | 0.419 | 0.407 | 0.383 | 0.411 | 0.235
5 | CAL-12T | 0.242 | 0.369 | 0.364 | 0.359 | 0.361 | 0.815 | 0.646 | 0.647 | 0.74 | 0.786 | 0.352 | 0.414 | 0.359 | 0.329 | 0.196
6 | LCLC-103H | 0.931 | 1.05 | 0.952 | 1 | 0.894 | 0.797 | 0.836 | 0.739 | 0.749 | 0.658 | 0.659 | 0.682 | 0.666 | 0.661 | 0.658
7 | NCI-H3122 | 0.0861 | 0.09 | 0.0816 | 0.0839 | 0.12 | 0.702 | – | 0.577 | 0.601 | 0.651 | 0.192 | 0.241 | 0.258 | 0.219 | 0.25
8 | NCI-H1395 | 0.787 | 0.569 | 0.734 | 0.754 | 0.535 | 0.472 | 0.448 | 0.474 | 0.541 | 0.42 | 0.95 | 1.03 | 0.912 | 0.889 | 0.746
9 | PC-14 | 0.137 | 0.16 | 0.154 | 0.108 | 0.119 | 0.348 | 0.23 | 0.261 | 0.258 | 0.377 | 0.809 | 0.618 | 0.702 | 0.154 | 0.0395
10 | BEN | 0.379 | – | 0.338 | 0.201 | 0.381 | 1.11 | 0.613 | 1.05 | 1.13 | 1.04 | 1.14 | 1.11 | 1.07 | 1.02 | 0.714
11 | EPLC-272H | 0.32 | – | 0.243 | – | 0.228 | 0.896 | 0.831 | 0.8 | 0.964 | 0.688 | 0.312 | 0.273 | 0.285 | 0.326 | 0.247
12 | LK-2 | 0.217 | 0.16 | 0.196 | 0.159 | 0.188 | 0.67 | 0.334 | 0.681 | 0.802 | 0.733 | 0.853 | 0.775 | 0.592 | 0.823 | 0.519
13 | ChaGo-K-1 | 0.588 | 0.621 | 0.525 | 0.638 | 0.738 | 0.403 | 0.307 | 0.403 | 0.424 | 0.41 | 0.873 | 0.899 | 0.924 | 0.887 | 0.79
14 | HCC-827 | 0.724 | – | 0.541 | 0.5 | 0.439 | 0.466 | 0.62 | 0.661 | 0.617 | 0.646 | 0.591 | 0.524 | 0.515 | 0.575 | 0.433
15 | NCI-H1993 | 0.637 | 0.901 | 0.906 | 0.851 | 0.597 | – | 0.933 | 0.847 | 1.1 | 1.09 | 0.502 | 0.505 | 0.597 | 0.505 | 0.485
16 | NCI-H647 | 0.13 | 0.308 | 0.174 | 0.157 | 0.212 | 0.772 | 0.652 | 0.501 | 0.551 | 0.437 | 0.499 | 0.574 | 0.421 | 0.336 | 0.292
17 | NCI-H522 | 1.13 | – | 1.17 | 1.03 | 1.02 | 0.685 | 0.631 | 0.678 | 0.69 | 0.646 | 0.734 | 0.753 | 0.791 | 0.777 | 0.633
18 | NCI-H460 | 0.0397 | 0.0286 | 0.0301 | 0.0321 | 0.0373 | 0.53 | 0.411 | 0.403 | 0.424 | 0.362 | 0.115 | 0.197 | 0.172 | 0.0823 | 0.022
19 | EMC-BAC-2 | 1.15 | 1.3 | 1.13 | 1.18 | 1.16 | 0.474 | – | 0.476 | 0.502 | 0.402 | 1.02 | 0.913 | 0.83 | 0.85 | 0.321

Row | Cell Line | relative viability (Cediranib + Luminespib; first compound 0.04 µM) | relative viability (Cediranib + Luminespib; first compound 0.1265 µM) | relative viability (Cediranib + Luminespib; first compound 0.4 µM) | relative viability (Cediranib + Luminespib; first compound 1.265 µM) | relative viability (Cediranib + Luminespib; first compound 4 µM) | relative viability (Cediranib + Olaparib; first compound 0.04 µM) | relative viability (Cediranib + Olaparib; first compound 0.1265 µM) | relative viability (Cediranib + Olaparib; first compound 0.4 µM) | relative viability (Cediranib + Olaparib; first compound 1.265 µM) | relative viability (Cediranib + Olaparib; first compound 4 µM) | relative viability ([1]; first compound 0.001 µM) | relative viability ([1]; first compound 0.003162 µM) | relative viability ([1]; first compound 0.01 µM) | relative viability ([1]; first compound 0.03162 µM) | relative viability ([1]; first compound 0.1 µM)
20 | NCI-H23 | 0.192 | 0.218 | 0.213 | 0.253 | 0.238 | 0.373 | 0.326 | 0.277 | 0.323 | 0.342 | 0.413 | 0.407 | 0.392 | 0.402 | 0.217
21 | NCI-H1793 | 0.182 | 0.176 | 0.224 | – | 0.201 | 0.953 | 1.07 | 0.762 | 0.718 | 1.13 | 0.483 | 0.524 | 0.363 | 0.503 | 0.327
22 | A-427 | 1.25 | – | 0.84 | 0.906 | 0.928 | 0.802 | – | 0.668 | 0.67 | 0.753 | 0.823 | 0.787 | 0.742 | 0.714 | 0.634
23 | NCI-H322M | 0.982 | 1.15 | 0.826 | 0.831 | 0.771 | 0.857 | 0.757 | 0.618 | 0.783 | 0.762 | 0.512 | 0.441 | 0.513 | 0.479 | 0.423
24 | COR-L23 | 0.778 | 0.768 | 0.58 | 0.571 | 0.626 | 0.429 | 0.333 | 0.291 | 0.377 | 0.309 | 0.681 | 0.641 | 0.592 | 0.598 | 0.0948
25 | SW 900 | 0.167 | 0.186 | 0.195 | 0.188 | 0.169 | 0.915 | 0.845 | 0.794 | 0.899 | 0.925 | 0.871 | 0.941 | – | 1.03 | 0.534
26 | NCI-H2085 | 0.506 | 0.406 | 0.42 | 0.421 | 0.478 | 0.737 | 0.729 | 0.745 | 0.8 | 0.746 | 0.541 | 0.512 | 0.525 | 0.585 | 0.349
27 | NCI-H2087 | 0.194 | 0.191 | 0.191 | 0.136 | 0.144 | 0.609 | 0.62 | 0.575 | 0.567 | 0.708 | 0.219 | 0.213 | 0.222 | 0.197 | 0.156
28 | NCI-H2126 | 0.904 | 1.03 | 0.873 | 0.752 | 0.816 | 0.944 | 0.92 | 0.912 | 0.802 | 0.957 | 0.525 | 0.544 | 0.585 | 0.546 | 0.513
29 | SK-LU-1 | 0.203 | 0.195 | 0.183 | 0.203 | 0.194 | 0.617 | 0.488 | 0.426 | 0.462 | 0.497 | 0.572 | 0.504 | 0.559 | 0.461 | 0.321
30 | LCLC-97TM1 | 0.918 | 0.776 | 0.787 | 0.771 | 0.842 | 0.468 | – | 0.384 | 0.301 | 0.504 | 0.241 | 0.192 | 0.187 | 0.185 | 0.173
31 | NCI-H838 | 0.328 | 0.289 | 0.276 | 0.314 | 0.272 | 0.786 | 0.764 | 0.734 | 0.722 | 0.756 | 0.504 | 0.518 | 0.468 | 0.38 | 0.191
32 | NCI-H520 | 0.251 | 0.262 | 0.188 | 0.2 | 0.308 | 0.365 | 0.353 | 0.355 | 0.298 | 0.3 | 0.572 | 0.734 | 0.695 | 0.45 | 0.287
33 | NCI-H2347 | 0.321 | 0.404 | 0.637 | 0.506 | 0.747 | 0.571 | 0.675 | 0.59 | 0.577 | 0.619 | 0.256 | 0.284 | 0.289 | 0.258 | 0.253
34 | NCI-H441 | 0.471 | – | 0.273 | 0.341 | 0.279 | 0.564 | 0.605 | 0.597 | 0.702 | 0.575 | 0.48 | 0.428 | 0.493 | 0.471 | 0.233
35 | NCI-H2342 | 0.858 | 0.801 | 0.919 | 0.704 | 0.82 | 0.419 | 0.398 | 0.46 | 0.455 | 0.458 | 0.816 | 0.832 | 0.972 | 0.85 | 0.823
36 | NCI-H1944 | 0.767 | 0.796 | 0.741 | 0.72 | 0.963 | 0.391 | 0.394 | 0.395 | 0.407 | 0.376 | 0.394 | 0.437 | 0.417 | 0.43 | 0.355
37 | NCI-H2405 | 0.897 | 0.712 | 0.649 | 0.657 | 0.532 | 0.888 | 0.897 | 0.766 | 0.888 | 0.876 | 0.696 | 0.69 | 0.678 | 0.599 | 0.502
38 | HCC-15 | 0.188 | – | 0.261 | 0.225 | 0.425 | 0.706 | – | 0.705 | 0.759 | 0.759 | 0.415 | 0.412 | 0.399 | 0.368 | 0.31
